These results are taken from patent US7175990B2, “Method of determining endometrial receptivity” (The Regents of the University of California, priority 2002, dated 2007).

The subject of assay [1] is explants of the human chorionic villous tree (trophoblast L-selectin). Description: Binding of selectin ligand-coated beads to first-trimester villous explant cultures under shear stress. As to conditions: neoglycolipid-coated beads; cytotrophoblast column remnants and syncytiotrophoblasts. The assay is classed as cell-based. As to the method: Neoglycolipids were prepared by reductive amination of dipalmitoyl phosphatidylacetaldehyde with the aminoethyl glycoside of either sLe^x or 6-sulfo sLe^x 30 and dissolved in methanol (1 μg/μl). Blue 4-μm polystyrene latex beads (Interfacial Dynamics Corporation) were washed three times with ethanol, then resuspended in this solvent (1.2×10^8 beads/200 μl). Twenty-five micrograms of glycolipid was added, and the mixture was evaporated under nitrogen. Coated beads were washed three times in 1% BSA/PBS, then incubated with 3% BSA/PBS (2 h, room temperature). The beads were resuspended in 1 ml of 1% BSA/culture medium. Control beads were coated with phosphatidyl choline or used without coating.
Forty-eight first-trimester villous explant cultures were established (4 from 12 placentas; 2 experiments). After 24 h, the culture medium was removed, and 200 μl of a suspension of 2.4×10^7 beads in medium was added. Six explants were incubated with either experimental or control beads. Six other explants were pre-incubated with DREG-56 (30 min), then washed three times with medium before adding 6-sulfo sLe^x-coated beads. The explants were placed inside an incubator on a platform shaker (1 h; 20 cycles/min). Afterwards, bead suspensions were aspirated and explants were fixed in 3.8% paraformaldehyde (1 h, room temperature), washed three times in PBS (4° C.), and examined with a stereomicroscope. […]

Assay [2] concerns hatched mouse blastocysts. Briefly: Binding of selectin ligand-coated beads to hatched mouse blastocysts under shear stress. The assay is classed as cell-based. As to conditions: neoglycolipid-coated 4-μm polystyrene beads.
For the next assay, the system named is L-selectin. As to conditions: compared with sLe^x; cited from earlier work.

`CC(=O)NC1C(O)CC(OC2C(O)C(CO)OC(OC3C(CO)OC(O)C(NC(C)=O)C3OC3OC(C)C(O)C(O)C3O)C2O)(C(=O)O)OC1C(O)C(O)CO` (centres unmarked) [sLe^x, Siaα2→3Galβ1→4[Fucα1→3]GlcNAc]: in assay [1], the “binding of ligand-coated beads to human villus explants / trophoblasts” value is “in fewer numbers”. Moreover, the “binding of ligand-coated beads to hatched mouse blastocysts” value in assay [2] is on record as “bound”.
Regarding “Siaα2→3Galβ1→4[Fucα1→3][SO3→6]GlcNAc [6-sulfo sLe^x]”, in assay [1], the “binding of ligand-coated beads to human villus explants / trophoblasts” value is on record as “bound”. Also, in assay [2], the “binding of ligand-coated beads to hatched mouse blastocysts” value is “bound”. The “tightness of L-selectin binding, 6-sulfo sLe^x versus sLe^x” value with L-selectin is “more tightly”.
